# Test results reported in patent publication US20070116654A1, “Cosmetics” (SHISEIDO CO., LTD., priority 2001, published 2007).
# Test system: back of a marmot
# Test: Continuous skin irritation test of retinol
# Assay type: in vivo
# Settings: polar oil blend ratio 8 mass %, 0.2 mass % retinol
# Protocol: “Continuous Skin Irritation Test”
# 0.05 ml of a sample solution containing a lipophilic drug was applied on a 2×2 cm area of the back of a marmot (first application).
# 24 hours later, the second application was done.
# Again, 24 hours later, the third application was done.
# Before the second application, before the third application, and 24 hours after the third application, skin reactions such as erythema and edema was observed by naked eye. Evaluation was conducted based on the following criteria, and the average of the three scores was used as the skin reaction score.
# Evaluation Criteria of the Skin Reaction
smiles,measurement,value
CCCCCCCC(=O)OCC(COC(=O)CCCCCCC)(COC(=O)CCCCCCC)COC(=O)CCCCCCC [pentaerythrityl tetraoctanoate],"skin irritation suppression effect (retinol), FIG. 9",superior skin irritation suppression effect
